Results published in the NIST ThermoML archive (doi:10.1016/j.jct.2009.11.014).
± gives the expanded uncertainty stated by the source.

Conditions: Liquid; for mass density: vibrating tube; for viscosity: Stony Brook Scientific falling needle HPHTV-100 viscometer

CCCCCCn1cc[n+](C)c1.F[B-](F)(F)F [1-hexyl-3-methylimidazolium tetrafluoroborate]
Conditions	mass density [kg/m3]	viscosity [mPa·s]
283.15 K, 100 kPa	1155.97 ± 0.97	–
283.15 K, 2000 kPa	1156.84 ± 0.96	–
283.15 K, 4000 kPa	1157.76 ± 0.96	–
283.15 K, 6000 kPa	1158.69 ± 0.98	–
283.15 K, 8000 kPa	1159.61 ± 0.96	–
283.15 K, 10000 kPa	1160.53 ± 0.96	–
283.15 K, 12000 kPa	1161.43 ± 0.96	–
283.15 K, 14000 kPa	1162.34 ± 0.96	–
283.15 K, 20000 kPa	1165.02 ± 0.95	–
283.15 K, 30000 kPa	1169.4 ± 0.96	–
283.15 K, 40000 kPa	1173.6 ± 0.96	–
283.15 K, 50000 kPa	1177.7 ± 0.96	–
283.15 K, 60000 kPa	1181.65 ± 0.97	–
285.09 K, 4270 kPa	–	449.6 ± 50
285.15 K, 130 kPa	–	420.5 ± 46
285.15 K, 1400 kPa	–	430.2 ± 47
285.15 K, 3170 kPa	–	437 ± 48
285.15 K, 5380 kPa	–	457.2 ± 52
285.15 K, 12640 kPa	–	495.6 ± 54
285.2 K, 5080 kPa	–	447.9 ± 49
285.22 K, 12000 kPa	–	488.4 ± 54
285.23 K, 7090 kPa	–	460.6 ± 51
285.23 K, 10000 kPa	–	481.6 ± 53
285.23 K, 14220 kPa	–	504.9 ± 56
285.25 K, 8290 kPa	–	468.5 ± 52
288.15 K, 100 kPa	1152.44 ± 0.97	–
288.15 K, 2000 kPa	1153.37 ± 0.96	–
288.15 K, 4000 kPa	1154.32 ± 0.96	–
288.15 K, 6000 kPa	1155.11 ± 0.96	–
288.15 K, 8000 kPa	1156.19 ± 0.96	–
288.15 K, 10000 kPa	1157.11 ± 0.96	–
288.15 K, 12000 kPa	1158.05 ± 0.96	–
288.15 K, 14000 kPa	1158.97 ± 0.96	–
288.15 K, 20000 kPa	1161.68 ± 0.96	–
288.15 K, 30000 kPa	1166.05 ± 0.96	–
288.15 K, 40000 kPa	1170.31 ± 0.96	–
288.15 K, 50000 kPa	1174.45 ± 0.97	–
288.15 K, 60000 kPa	1178.4 ± 0.97	–
293.15 K, 100 kPa	1148.92 ± 0.96	–
293.15 K, 2000 kPa	1149.88 ± 0.97	–
293.15 K, 4000 kPa	1150.84 ± 0.96	–
293.15 K, 6000 kPa	1151.81 ± 0.95	–
293.15 K, 8000 kPa	1152.76 ± 0.96	–
293.15 K, 10000 kPa	1153.7 ± 0.96	–
293.15 K, 12000 kPa	1154.65 ± 0.96	–
293.15 K, 14000 kPa	1155.57 ± 0.96	–
293.15 K, 20000 kPa	1158.32 ± 0.96	–
293.15 K, 30000 kPa	1162.74 ± 0.96	–
293.15 K, 40000 kPa	1167.02 ± 0.96	–
293.15 K, 50000 kPa	1171.16 ± 0.96	–
293.15 K, 60000 kPa	1175.18 ± 0.96	–
294.65 K, 14670 kPa	–	285.1 ± 35
294.75 K, 8260 kPa	–	261.3 ± 32
294.75 K, 10200 kPa	–	270.5 ± 33
294.75 K, 12300 kPa	–	278.6 ± 34
294.77 K, 6430 kPa	–	254.4 ± 28
294.85 K, 140 kPa	–	238.3 ± 29
294.85 K, 760 kPa	–	238.2 ± 29
294.85 K, 2760 kPa	–	242.5 ± 30
294.85 K, 4280 kPa	–	246.6 ± 30
294.91 K, 1460 kPa	–	238.3 ± 29
298.15 K, 100 kPa	1145.47 ± 0.96	–
298.15 K, 2000 kPa	1146.39 ± 0.96	–
298.15 K, 4000 kPa	1147.43 ± 0.96	–
298.15 K, 6000 kPa	1148.36 ± 0.96	–
298.15 K, 8000 kPa	1149.29 ± 0.96	–
298.15 K, 10000 kPa	1150.27 ± 0.96	–
298.15 K, 12000 kPa	1151.22 ± 0.96	–
298.15 K, 14000 kPa	1152.19 ± 0.96	–
298.15 K, 20000 kPa	1154.94 ± 0.96	–
298.15 K, 30000 kPa	1159.42 ± 0.95	–
298.15 K, 40000 kPa	1163.75 ± 0.95	–
298.15 K, 50000 kPa	1167.96 ± 0.96	–
298.15 K, 60000 kPa	1172.02 ± 0.96	–
300.25 K, 1630 kPa	–	179.8 ± 21
300.39 K, 2690 kPa	–	180.5 ± 20
300.42 K, 14380 kPa	–	210.1 ± 24
300.49 K, 4140 kPa	–	184.2 ± 21
300.61 K, 6190 kPa	–	187 ± 21
300.61 K, 12340 kPa	–	202.5 ± 23
300.62 K, 8490 kPa	–	191.3 ± 22
300.68 K, 10400 kPa	–	196.1 ± 22
300.75 K, 1410 kPa	–	175.2 ± 20
300.85 K, 120 kPa	–	168.1 ± 19
303.15 K, 100 kPa	1141.99 ± 0.96	–
303.15 K, 2000 kPa	1142.93 ± 0.96	–
